# Measurements: ChEMBL document CHEMBL3112421, “Small Macrocycles As Highly Active Integrin α2β1 Antagonists” (ACS Med Chem Lett, 2014)
# Experiments:
# [1] = target: Integrin alpha2/beta1 (Homo sapiens, UniProt P05556+P17301); assay: Antagonist activity at recombinant integrin alpha2 beta1 receptor (unknown origin) assessed as inhibition of interaction with biotinylated collagen type-1 after 3 hrs by solid phase ELISA-type assay; type: protein-complex assay
# [2] = Permeability across human Caco2 cells; type: ADME, cell-based; details: Caco-2, read-out: permeability
# Sequence of Integrin alpha2/beta1 (P05556 whole entry): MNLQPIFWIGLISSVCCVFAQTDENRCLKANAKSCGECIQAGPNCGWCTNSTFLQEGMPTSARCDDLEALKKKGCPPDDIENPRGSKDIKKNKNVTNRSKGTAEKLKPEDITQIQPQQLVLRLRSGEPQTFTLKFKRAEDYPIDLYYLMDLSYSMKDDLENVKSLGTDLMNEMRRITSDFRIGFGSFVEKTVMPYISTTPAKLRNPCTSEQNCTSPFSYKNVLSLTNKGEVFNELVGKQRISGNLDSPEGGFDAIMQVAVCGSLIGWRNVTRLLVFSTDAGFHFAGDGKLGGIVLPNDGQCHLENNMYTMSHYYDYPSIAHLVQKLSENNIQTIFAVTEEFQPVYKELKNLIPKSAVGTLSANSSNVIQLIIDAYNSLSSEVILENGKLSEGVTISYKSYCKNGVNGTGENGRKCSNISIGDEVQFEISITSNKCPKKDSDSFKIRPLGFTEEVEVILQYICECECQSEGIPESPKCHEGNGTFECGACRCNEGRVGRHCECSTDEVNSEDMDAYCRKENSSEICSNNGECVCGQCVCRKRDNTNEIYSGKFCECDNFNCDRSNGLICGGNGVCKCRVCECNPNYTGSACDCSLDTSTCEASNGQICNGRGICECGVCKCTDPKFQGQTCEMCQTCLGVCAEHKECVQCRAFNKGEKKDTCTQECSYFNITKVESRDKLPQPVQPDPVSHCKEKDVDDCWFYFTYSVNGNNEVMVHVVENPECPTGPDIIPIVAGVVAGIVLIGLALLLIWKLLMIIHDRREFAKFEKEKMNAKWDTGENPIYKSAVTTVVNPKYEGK
# Sequence of Integrin alpha2/beta1 (P17301 whole entry): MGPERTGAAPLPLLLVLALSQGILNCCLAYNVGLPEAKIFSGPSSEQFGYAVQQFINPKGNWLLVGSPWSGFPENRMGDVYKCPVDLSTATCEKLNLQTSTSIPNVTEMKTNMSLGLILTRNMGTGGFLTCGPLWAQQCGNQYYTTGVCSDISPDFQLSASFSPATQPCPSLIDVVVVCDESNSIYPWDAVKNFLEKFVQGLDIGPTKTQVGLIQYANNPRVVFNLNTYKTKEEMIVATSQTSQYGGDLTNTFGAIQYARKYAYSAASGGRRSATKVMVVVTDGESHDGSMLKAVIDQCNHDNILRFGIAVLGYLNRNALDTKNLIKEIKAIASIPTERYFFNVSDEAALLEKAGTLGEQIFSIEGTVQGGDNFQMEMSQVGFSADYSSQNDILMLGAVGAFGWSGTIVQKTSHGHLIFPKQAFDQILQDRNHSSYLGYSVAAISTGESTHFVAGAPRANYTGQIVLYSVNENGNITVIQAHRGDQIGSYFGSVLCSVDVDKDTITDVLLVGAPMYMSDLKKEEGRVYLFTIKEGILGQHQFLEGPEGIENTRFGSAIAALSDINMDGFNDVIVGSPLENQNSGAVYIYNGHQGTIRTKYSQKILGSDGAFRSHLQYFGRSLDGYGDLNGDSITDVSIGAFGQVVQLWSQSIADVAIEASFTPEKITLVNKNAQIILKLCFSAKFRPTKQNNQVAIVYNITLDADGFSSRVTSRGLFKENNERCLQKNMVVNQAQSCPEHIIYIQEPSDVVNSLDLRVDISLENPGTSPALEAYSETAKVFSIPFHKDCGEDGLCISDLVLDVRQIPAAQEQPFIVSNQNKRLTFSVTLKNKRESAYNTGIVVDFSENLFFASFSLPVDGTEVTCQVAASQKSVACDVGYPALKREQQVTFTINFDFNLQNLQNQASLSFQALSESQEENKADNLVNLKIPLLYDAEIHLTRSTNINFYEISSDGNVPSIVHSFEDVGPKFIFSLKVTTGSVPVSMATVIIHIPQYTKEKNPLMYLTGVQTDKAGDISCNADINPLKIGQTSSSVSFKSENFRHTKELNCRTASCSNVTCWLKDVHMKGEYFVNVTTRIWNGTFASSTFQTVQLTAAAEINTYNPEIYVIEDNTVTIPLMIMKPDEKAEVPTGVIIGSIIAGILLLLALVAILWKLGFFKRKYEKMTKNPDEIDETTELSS
SMILES,IC50 [1] [nM],Papp [2] [×10⁻⁶ cm/s]
O=C1N[C@H](C(=O)O)Cc2ncn(c2Cl)C/C=C/COc2ccc(Cl)c1c2,> 4000,–
O=C1N[C@H](C(=O)O)Cc2cccc(c2)OC/C=C/COc2ccc1c(Cl)c2,163,–
O=C1NC(C(=O)O)CCc2cn(cn2)C/C=C/COc2ccc(Cl)c1c2 (racemic),> 5000,–
O=C1N[C@H](C(=O)O)Cc2cccc(c2)OC/C=C/COc2cc(C(F)(F)F)c1cn2,1900,–
COC(=O)[C@@H]1Cc2cn(cn2)C/C=C/COc2ccc(Cl)c(c2)C(=O)N1,–,> 2
O=C1N[C@H](C(=O)O)Cc2cccc(c2)OC/C=C/COc2cccc(F)c21,> 1000,–
COc1cccc2c1C(=O)N[C@H](C(=O)O)Cc1cccc(c1)OCCCCO2,> 4000,–
O=C1N[C@H](C(=O)O)Cc2cccc(n2)NC/C=C/COc2ccc(Cl)c1c2,> 1000,–
O=C1N[C@H](C(=O)O)Cc2ccc(cc2)OCCCCOc2ccc(Cl)c1c2,731,–
O=C1N[C@H](C(=O)O)Cc2ccc(nc2)OCCCCOc2ccc(Cl)c1c2,792,–
O=C1N[C@@H](C(=O)O)Cc2cn(cn2)CCCCOc2ccc(Cl)c1c2,> 4000,–
O=C1N[C@H](C(=O)O)Cc2cccc(c2)OCCCCOc2cccc(F)c21,> 1000,–
CCOC(=O)[C@@H]1Cc2cn(cn2)C/C=C/COc2ccc(Cl)c(c2)C(=O)N1,–,> 2
O=C1N[C@H](C(=O)O)Cc2cccc(n2)NCCCCOc2ccc(Cl)c1c2,> 1000,–

# The next lines start with the values.
IC50 [1] [nM],Papp [2] [×10⁻⁶ cm/s],SMILES
869,–,O=C1N[C@H](C(=O)O)Cc2cn(cn2)C/C=C/COc2ccc(Cl)c1c2Cl
667,–,O=C1N[C@H](C(=O)O)Cc2cccc(c2)OC/C=C/COc2ccc([N+](=O)[O-])c1c2
978,–,O=C1N[C@H](C(=O)O)Cc2cccc(c2)OCCCCOc2cccc(Cl)c21
588,–,O=C1N[C@H](C(=O)O)Cc2cccc(c2)OC/C=C/COc2cccc(Cl)c21
1050,–,Cc1ccc2cc1C(=O)N[C@H](C(=O)O)Cc1cccc(c1)OC/C=C/CO2
12,–,O=C1N[C@H](C(=O)O)Cc2cn(c3ccccc23)C/C=C/COc2ccc(Cl)c1c2
142,–,O=C1N[C@H](C(=O)O)Cc2cccc(c2)OCCCCOc2ccc(Cl)c1c2
36,–,O=C1N[C@H](C(=O)O)Cc2cn(cn2)C/C=C/COc2ccc(Cl)c1n2
270,–,O=C1N[C@H](C(=O)O)Cc2cn(cn2)CC/C=C/COc2ccc(Cl)c1c2 (mixture of isomers)
